Paper PMC12472322, “Structure–Activity Relationship Study of 3-Alkynyl-6-aryl-isothiazolo[4,3-b]pyridines as Dual Inhibitors of the Lipid Kinases PIKfyve and PIP4K2C” (Pharmaceuticals, 2025)
Where two headings read alike, the source gives them in different places.

Legend:
[1] = biological target: T1, PIP4K2C (Homo sapiens, UniProt Q8TBX8); conditions: cited from earlier work
T1 sequence (Q8TBX8 1-421): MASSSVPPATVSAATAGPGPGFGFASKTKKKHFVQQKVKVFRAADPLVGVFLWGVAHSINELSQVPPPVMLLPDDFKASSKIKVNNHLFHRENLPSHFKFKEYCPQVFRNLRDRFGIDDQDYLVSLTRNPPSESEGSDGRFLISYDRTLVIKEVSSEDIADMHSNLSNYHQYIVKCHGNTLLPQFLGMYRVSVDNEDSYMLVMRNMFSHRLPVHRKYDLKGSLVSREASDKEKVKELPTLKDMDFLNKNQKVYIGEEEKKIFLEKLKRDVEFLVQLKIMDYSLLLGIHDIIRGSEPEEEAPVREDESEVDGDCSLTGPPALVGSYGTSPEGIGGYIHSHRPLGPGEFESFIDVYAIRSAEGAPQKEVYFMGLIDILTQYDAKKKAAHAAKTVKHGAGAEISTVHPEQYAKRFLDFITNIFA

[2] = test system: SARS-CoV-2; experiment: microbe, parasite or virus in culture; assay type: cell-based, severe acute respiratory syndrome coronavirus 2; conditions: Severe acute respiratory syndrome coronavirus 2, VeroE6/TMPRSS2, 24 h; read-out: SARS-CoV2 EC50
[3] = test system: LN-229; experiment: cell proliferation assay (MTS, 72 h); conditions: Homo sapiens, LN-229, 72 h, read-out: CC50 LN-229
[4] = biological target: T1, PIP4K2C; experiment: PIP4K2C binding assay (DiscoverX/Kinome platform)
[5] = test system: HL-60; experiment: cell proliferation assay (MTS, 72 h); conditions: Homo sapiens, HL-60, 72 h, read-out: CC50 HL-60
[6] = test system: Z-138; experiment: cell proliferation assay (MTS, 72 h); conditions: Homo sapiens, Z-138, 72 h, read-out: CC50 Z-138
[7] = cell viability (AlamarBlue) in SARS-CoV-2-infected Vero E6/TMPRSS2 cells; assay type: cell-based; conditions: African green monkey, Vero E6/TMPRSS2 cells infected with SARS-CoV-2, half-maximal cytotoxic concentration, read-out: SARS-CoV2 CC50
[8] = test system: DND-41; experiment: cell proliferation assay (MTS, 72 h); conditions: DND41, 72 h, read-out: CC50 DND-41
[9] = test system: VEEV (TC-83); experiment: microbe, parasite or virus in culture; assay type: cell-based; conditions: Venezuelan equine encephalitis virus, U-87 MG, 18 h, read-out: VEEV (TC-83) EC50
[10] = test system: U-87 MG cells; conditions: half-maximal cytotoxic concentration
[11] = test system: Capan-1; experiment: cell proliferation assay (MTS, 72 h); conditions: Homo sapiens, CAPAN-1, 72 h, read-out: CC50 Capan-1
[12] = test system: K-562; experiment: cell proliferation assay (MTS, 72 h); conditions: Homo sapiens, K562, 72 h, read-out: CC50 K-562
[13] = test system: NCI-H460; experiment: cell proliferation assay (MTS, 72 h); conditions: Homo sapiens, NCI-H460, 72 h, read-out: CC50 NCI-H460
[14] = test system: HCT-116; experiment: cell proliferation assay (MTS, 72 h); conditions: Homo sapiens, HCT-116, 72 h, read-out: CC50 HCT-116
[15] = biological target: T2, PIKfyve (Homo sapiens, UniProt Q9Y2I7); experiment: biochemical PIKfyve mobility shift assay (Nanosyn)
T2 construct: purchased Nanosyn, Santa Clara, CA, USA (contract assay service)
T2 sequence (Q9Y2I7 whole entry): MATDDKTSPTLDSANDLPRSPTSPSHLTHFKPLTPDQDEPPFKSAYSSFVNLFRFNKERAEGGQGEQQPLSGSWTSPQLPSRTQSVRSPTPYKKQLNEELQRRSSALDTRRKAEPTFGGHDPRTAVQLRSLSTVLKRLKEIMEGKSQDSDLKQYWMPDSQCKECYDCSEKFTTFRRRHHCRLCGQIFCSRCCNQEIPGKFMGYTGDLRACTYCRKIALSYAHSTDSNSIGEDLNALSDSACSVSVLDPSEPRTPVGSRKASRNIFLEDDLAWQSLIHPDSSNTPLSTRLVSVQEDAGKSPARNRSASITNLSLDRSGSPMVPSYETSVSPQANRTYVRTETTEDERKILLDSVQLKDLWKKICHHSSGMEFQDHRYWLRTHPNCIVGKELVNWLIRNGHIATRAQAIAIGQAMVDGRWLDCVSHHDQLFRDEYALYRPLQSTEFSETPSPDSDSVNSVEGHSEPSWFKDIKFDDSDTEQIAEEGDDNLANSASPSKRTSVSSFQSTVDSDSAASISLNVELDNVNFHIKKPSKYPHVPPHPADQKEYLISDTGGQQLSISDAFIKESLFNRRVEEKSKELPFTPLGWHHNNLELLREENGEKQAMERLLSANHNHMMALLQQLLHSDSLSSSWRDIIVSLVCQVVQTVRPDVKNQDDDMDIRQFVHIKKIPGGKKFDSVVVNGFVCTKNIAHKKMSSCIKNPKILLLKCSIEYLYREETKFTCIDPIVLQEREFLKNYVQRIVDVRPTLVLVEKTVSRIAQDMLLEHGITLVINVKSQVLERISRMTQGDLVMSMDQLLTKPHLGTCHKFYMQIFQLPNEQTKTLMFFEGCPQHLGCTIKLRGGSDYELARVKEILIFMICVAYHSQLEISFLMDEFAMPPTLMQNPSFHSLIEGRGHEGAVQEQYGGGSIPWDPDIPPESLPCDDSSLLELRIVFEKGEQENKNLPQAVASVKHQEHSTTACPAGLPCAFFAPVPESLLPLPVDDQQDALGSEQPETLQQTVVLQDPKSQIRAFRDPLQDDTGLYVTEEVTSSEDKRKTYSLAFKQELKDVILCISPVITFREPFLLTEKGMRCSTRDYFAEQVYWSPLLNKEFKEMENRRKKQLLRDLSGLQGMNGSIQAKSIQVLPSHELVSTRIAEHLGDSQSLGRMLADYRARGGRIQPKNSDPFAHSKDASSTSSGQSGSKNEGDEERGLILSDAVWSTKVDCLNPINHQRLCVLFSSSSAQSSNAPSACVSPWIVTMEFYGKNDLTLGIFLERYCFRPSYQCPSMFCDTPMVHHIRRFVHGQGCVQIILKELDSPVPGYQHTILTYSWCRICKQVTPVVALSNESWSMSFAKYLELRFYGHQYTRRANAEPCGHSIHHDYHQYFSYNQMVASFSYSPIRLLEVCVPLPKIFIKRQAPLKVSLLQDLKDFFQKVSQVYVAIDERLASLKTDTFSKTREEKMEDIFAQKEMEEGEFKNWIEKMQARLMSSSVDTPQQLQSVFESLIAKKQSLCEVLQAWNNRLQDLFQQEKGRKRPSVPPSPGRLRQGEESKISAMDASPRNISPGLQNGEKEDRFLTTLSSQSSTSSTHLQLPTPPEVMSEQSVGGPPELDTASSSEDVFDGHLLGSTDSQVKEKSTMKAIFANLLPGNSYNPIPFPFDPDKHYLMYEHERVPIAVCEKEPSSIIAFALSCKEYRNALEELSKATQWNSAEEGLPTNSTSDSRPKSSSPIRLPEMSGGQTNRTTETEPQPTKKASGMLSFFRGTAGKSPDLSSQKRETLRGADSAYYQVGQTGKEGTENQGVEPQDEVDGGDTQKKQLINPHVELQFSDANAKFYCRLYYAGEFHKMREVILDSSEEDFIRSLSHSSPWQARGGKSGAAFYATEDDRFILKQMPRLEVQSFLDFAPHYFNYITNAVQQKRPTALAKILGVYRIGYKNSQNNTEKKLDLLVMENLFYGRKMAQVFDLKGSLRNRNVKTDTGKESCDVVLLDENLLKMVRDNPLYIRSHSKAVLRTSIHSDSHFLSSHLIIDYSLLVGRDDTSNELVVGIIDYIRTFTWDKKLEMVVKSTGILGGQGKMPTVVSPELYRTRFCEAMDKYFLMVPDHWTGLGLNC

[16] = test system: non-Hodgkin lymphoma (NHL) B-cell lines; conditions: large panel of NHL B-cell lines; read-out: antiproliferative IC50; cited from earlier work
[17] = test system: subcutaneous Burkitt lymphoma xenografts; conditions: oral administration, mice; cited from earlier work

Row | Structure (SMILES) | Kd [1] [µM] | EC50 [2] [µM] | CC50 [3] [µM] | CC50 [5] [µM] | CC50 [6] [µM] | CC50 [7] [µM] | CC50 [8] [µM] | EC50 [9] [µM] | VEEV (TC-83) CC50 [10] [µM] | CC50 [11] [µM] | CC50 [12] [µM] | CC50 [13] [µM] | CC50 [14] [µM] | other results
1 | FC(F)(F)c1ccccc1-c1nc(NCc2cccs2)c2ccccc2n1 [NIH-12848, reference compound] | 2.8 |  |  |  |  |  |  |  |  |  |  |  |  | 
2 | COc1cncc(C#Cc2snc3cc(-c4ccc(OC)c(OC)c4)cnc23)c1 [Compound 7l, 6-(3,4-Dimethoxyphenyl)-3-((5-methoxypyridin-3-yl)ethynyl)isothiazolo[4,3-b]pyridine] |  | 4.92 ± 0.93 | 5.15 ± 2.05 | 1.8 | 1.85 ± 0.07 | > 20 | 5.25 ± 0.64 | 1.64 ± 0.05 | >10 | 1.79 ± 1.2 | 5.7 ± 1.27 | 5.38 ± 0.56 | 2.45 ± 0.85 | Kd [4]: 0.039 µM; IC50 ([15]; Table 5 column): 3.3 nM; IC50 ([15]; Tables 1-4 and text): 3.3 nM; fold more potent on PIKfyve than 7o ([15]; ratio of IC50 values): 6 fold; fold more potent on PIKfyve than 7h ([15]; ratio of IC50 values): 200 fold; IC50 ([15]; values given in text in nM): 3 nM
3 | COc1ccc(-c2cnc3c(C#Cc4cccnc4)snc3c2)cc1OC [Compound 21, 6-(3,4-dimethoxyphenyl)-3-(pyridin-3-ylethynyl)isothiazolo[4,3-b]pyridine] | 0.046 |  | 1.62 ± 0.5 | 1.47 ± 0.45 | 0.77 ± 0.06 | > 20 | 1.75 ± 1.02 | 0.75 ± 0.02 | >10 | 0.81 ± 0.11 | 4.24 ± 0.11 | 2.52 ± 1.09 | 0.82 ± 0.37 | 
4 | Cc1cccc(/C=N/Nc2cc(N3CCOCC3)nc(OCCc3ccccn3)n2)c1 [Apilimod, reference compound] |  | 0.19 | 0.08 ± 0.09 | 0.17 ± 0.02 | 0.06 | 18.4 ± 0.42 | 0.08 ± 0.02 | 1.35 ± 0.49 | >10 | < 0.02 | 0.33 ± 0.34 | < 0.02 | < 0.02 | IC50 [16]: < 0.2 µM; growth of subcutaneous Burkitt lymphoma xenografts [17]: inhibits the growth
